Source: BindingDB's records for doi:10.1016/j.bmcl.2005.11.067 (Merck Sharp and Dohme Research Laboratories, 2006)

Target: T1, Alpha-1A/Alpha-1B/Alpha-1D adrenergic receptor (Rattus norvegicus, UniProt P15823+P23944+P43140)
T1 sequence (P15823 whole entry): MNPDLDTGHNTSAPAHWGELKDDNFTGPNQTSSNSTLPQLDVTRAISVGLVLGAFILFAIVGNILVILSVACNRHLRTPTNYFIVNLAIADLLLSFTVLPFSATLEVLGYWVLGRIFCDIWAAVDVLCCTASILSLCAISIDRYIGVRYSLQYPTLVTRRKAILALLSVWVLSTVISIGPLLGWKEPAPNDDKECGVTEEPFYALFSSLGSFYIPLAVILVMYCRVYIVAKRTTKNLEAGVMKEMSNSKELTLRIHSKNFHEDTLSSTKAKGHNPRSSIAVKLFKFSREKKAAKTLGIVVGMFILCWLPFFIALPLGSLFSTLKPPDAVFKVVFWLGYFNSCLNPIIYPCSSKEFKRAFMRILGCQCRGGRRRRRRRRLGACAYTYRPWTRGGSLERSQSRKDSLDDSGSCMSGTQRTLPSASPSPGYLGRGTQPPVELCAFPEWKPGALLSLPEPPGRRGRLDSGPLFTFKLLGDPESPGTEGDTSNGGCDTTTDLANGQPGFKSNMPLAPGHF
T1 sequence (P43140 whole entry): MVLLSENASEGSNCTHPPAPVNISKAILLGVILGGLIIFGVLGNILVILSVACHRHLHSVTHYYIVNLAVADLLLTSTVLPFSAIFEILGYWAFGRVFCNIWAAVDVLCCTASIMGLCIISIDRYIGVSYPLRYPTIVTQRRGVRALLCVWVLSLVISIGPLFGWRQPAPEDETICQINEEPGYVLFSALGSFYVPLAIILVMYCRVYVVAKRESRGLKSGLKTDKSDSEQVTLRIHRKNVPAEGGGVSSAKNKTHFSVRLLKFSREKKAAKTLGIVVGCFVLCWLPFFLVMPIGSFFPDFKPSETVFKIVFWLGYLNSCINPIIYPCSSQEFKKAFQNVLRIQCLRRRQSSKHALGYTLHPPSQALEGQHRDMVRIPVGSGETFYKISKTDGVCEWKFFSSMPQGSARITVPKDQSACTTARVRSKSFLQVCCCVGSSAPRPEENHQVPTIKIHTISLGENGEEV
T1 sequence (P23944 whole entry): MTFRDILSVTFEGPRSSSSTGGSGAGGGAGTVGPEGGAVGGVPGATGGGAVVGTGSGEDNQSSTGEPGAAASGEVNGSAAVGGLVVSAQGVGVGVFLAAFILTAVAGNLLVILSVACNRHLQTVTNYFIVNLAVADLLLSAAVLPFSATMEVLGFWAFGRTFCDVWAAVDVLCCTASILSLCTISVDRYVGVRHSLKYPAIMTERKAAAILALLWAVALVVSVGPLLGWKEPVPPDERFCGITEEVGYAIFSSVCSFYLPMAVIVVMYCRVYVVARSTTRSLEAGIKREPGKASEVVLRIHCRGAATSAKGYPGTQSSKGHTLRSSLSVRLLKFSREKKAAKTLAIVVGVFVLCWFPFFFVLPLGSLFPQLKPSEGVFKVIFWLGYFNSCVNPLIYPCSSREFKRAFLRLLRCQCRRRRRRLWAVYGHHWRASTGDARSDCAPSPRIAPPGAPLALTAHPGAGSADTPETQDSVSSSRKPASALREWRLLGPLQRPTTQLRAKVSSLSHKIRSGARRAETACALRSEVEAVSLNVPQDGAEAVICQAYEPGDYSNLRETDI
Assay: Displacement of [3H]prazosin from alpha-1 adrenergic receptor in rat cortex

`CC(C)(CCCN1CCCC(c2cnco2)C1)S(=O)(=O)c1ccccc1` (centres undefined) was tested, and the Ki was > 4 µM.
`CC(C)(CCCN1CCCC(c2ccccc2)C1)S(=O)(=O)c1ccccc1` (centres undefined) showed a Ki of 0.54 µM.
`CC(C)(CCCN1CCCC(C(F)(F)F)C1)S(=O)(=O)c1ccccc1` (centres undefined) was tested, and the Ki was > 4 µM.
`CCOC(=O)[C@@H]1CCCN(CCCC(C)(C)S(=O)(=O)c2ccccc2)C1` was tested, and the Ki was > 4 µM.
